Laboratory results as given in US4699909A, “Benzotriazolyl-4,5-dihydro-3(2H)-pyridazinones” (Dr. Karl Thomae GmbH, priority 1981, dated 1987).
pEC50: −log10 of the molar value.

Legend:
thrombocyte aggregation = experiment: Thrombocyte aggregation according to Born and Cross (collagen-induced, platelet-rich plasma); format: cell-based; conditions: platelet-rich plasma from healthy human test subjects; aggregation initiated by collagen
Method: Determination of the thrombocyte aggregation according to Born and Cross [J. Physiol. 170, 397 (1964)]
The thrombocyte aggregation was determined in platelet-rich plasma from healthy human test subjects. The course of decrease in optical density after the administration of standard commercial collagen (made by the Sigma Co., St. Louis, Mo.) containing 1 mg of collagen fibrils per ml was measured photometrically and recorded. The rate of aggregation (Vmax) was deduced from the angle of inclination of the density curve. The point on the curve where there was most light transmittance was used to calculate the optical density (O.D.). To initiate maximum aggregation, about 0.01 ml of the collagen solution was added to 1 ml of platelet-rich plasma.

anesthetized cat = experiment: Hypotensive and positive inotropic activity in the anesthetized cat; format: in vivo; conditions: average; for Change in blood pressure (first value of the printed pair) / Change in blood pressure (second value of the printed pair): arterial pressure, aorta abdominalis; for Change in blood pressure (first value of the printed pair): first number before the slash; for Change in blood pressure (second value of the printed pair): second number after the slash; for Increase in dp/dt: left ventricle pressure, dp/dtmax
Method: Determination of hypotensive and positive inotropic activity in the anesthetized cat
The tests were carried out on cats which had been anesthetized with sodium pentobarbital (40 mg/kg i.p.). The animals breathed spontaneously. The arterial blood pressure was measured in the aorta abdominalis using a Statham pressure transducer (P 23 Dc). To determine the positive inotropic effect, the pressure in the left ventricle of the heart was measured using a catheter-tip manometer (Milliar PC-350 A). From this, the contractility parameter (dp/dtmax was obtained by means of an analog differentiator.
The test compounds were injected into a vena femoralis. Physiological saline solution or Polydiol 200 was used as the solvent. Each compound was tested on at least 3 cats in a dosage of 0.1 or 2.0 mg/kg i.v. The duration of activity of the test compounds was at least 45 minutes in each case.

Acute toxicity = conditions: in vivo, po; peroral, mouse
Method: In therapeutic doses the test substances are non-toxic. For example, compound B has a peroral LD50 of >50 mg/kg in the mouse.

Question: What does the source list for `CCn1nnc2cc(C3=NNC(=O)CC3C)ccc21` (stereo not shown) [D, 5-Methyl-6-(1'-ethyl-benzotriazol-5'-yl)-4,5-dihydro-3(2H)-pyridazinone]?
Answer: pEC50 (thrombocyte aggregation): 7.39; Change in blood pressure (first value of the printed pair) (anesthetized cat; 0.1 mg/kg i.v.): -30 mm Hg; Change in blood pressure (second value of the printed pair) (anesthetized cat; 0.1 mg/kg i.v.): -32 mm Hg; Increase in dp/dt (anesthetized cat; 0.1 mg/kg i.v.): +125%

Question: With `CC1CC(=O)NN=C1c1ccc2c(c1)nnn2CCN(C)C` (stereo not shown) [F, 5-Methyl-6-[1'-(2-dimethylaminoethyl)-benzotriazol-5'-yl]-4,5-dihydro-3(2H)-pyridazinone] as the molecule, how does the pEC50 (thrombocyte aggregation) read?
Answer: Its pEC50 is 6.52.

Question: With `CC1CC(=O)NN=C1c1ccc2c(c1)nnn2C` (stereo not shown) [G, 5-Methyl-6-(1'-methyl-benzotriazol-5'-yl)-4,5-dihydro-3(2H)-pyridazinone] as the molecule, how does the pEC50 (thrombocyte aggregation) read?
Answer: The pEC50 was 7.29.

Question: And the “Change in blood pressure (first value of the printed pair)” value (anesthetized cat; 0.1 mg/kg i.v.)?
Answer: Its value is -33 mm Hg.

Question: What about the “Change in blood pressure (second value of the printed pair)” value (anesthetized cat; 0.1 mg/kg i.v.) of the same molecule?
Answer: Its value is -38 mm Hg.

Question: What about the Increase in dp/dt (anesthetized cat; 0.1 mg/kg i.v.) of the same molecule?
Answer: Its Increase in dp/dt is “+168%”.

Question: With `COc1ccc(C(=O)n2nnc3cc(C4=NNC(=O)CC4C)ccc32)cc1` (stereo not shown) [A, 5-Methyl-6-(1'-p-methoxybenzoyl-benzotriazol-5'-yl)-4,5-dihydro-3(2H)-pyridazinone] as the molecule, how does the pEC50 (thrombocyte aggregation) read?
Answer: The pEC50 was 6.57.

Question: And the “Change in blood pressure (first value of the printed pair)” value (anesthetized cat; 0.1 mg/kg i.v.)?
Answer: The value was -16 mm Hg.

Question: And the “Change in blood pressure (second value of the printed pair)” value (anesthetized cat; 0.1 mg/kg i.v.)?
Answer: The value was -16 mm Hg.

Question: And the Increase in dp/dt (anesthetized cat; 0.1 mg/kg i.v.)?
Answer: Its Increase in dp/dt is “+105%”.

Question: Which results are given for `CC1CC(=O)NN=C1c1ccc2c(c1)nnn2C(=O)C1CCCCC1` (stereo not shown) [B, 5-Methyl-6-(1'-cyclohexanoyl-benzotriazol-5'-yl)-4,5-dihydro-3(2H)-pyridazinone]?
Answer: LD50 (Acute toxicity): > 50 mg/kg; pEC50 (thrombocyte aggregation): 6.55; Change in blood pressure (first value of the printed pair) (anesthetized cat; 2.0 mg/kg i.v.): -60 mm Hg; Change in blood pressure (second value of the printed pair) (anesthetized cat; 2.0 mg/kg i.v.): -37 mm Hg; Increase in dp/dt (anesthetized cat; 2.0 mg/kg i.v.): +154%

Question: Which results are given for `COc1ccc(Cn2nnc3cc(C4=NNC(=O)CC4C)ccc32)cc1` (stereo not shown) [Compound E, 5-Methyl-6-(1'-p-methoxybenzyl-benzotriazol-5'-yl)-4,5-dihydro-3(2H)-pyridazinone]?
Answer: Change in blood pressure (first value of the printed pair) (anesthetized cat; 0.1 mg/kg i.v.): -48 mm Hg; Change in blood pressure (second value of the printed pair) (anesthetized cat; 0.1 mg/kg i.v.): -48 mm Hg; Increase in dp/dt (anesthetized cat; 0.1 mg/kg i.v.): +167%

Question: With `CC1CC(=O)NN=C1c1ccc2c(c1)nnn2C(C)C` (stereo not shown) [C, 5-Methyl-6-(1'-isopropyl-benzotriazol-5'-yl)-4,5-dihydro-3(2H)-pyridazinone] as the molecule, how does the pEC50 (thrombocyte aggregation) read?
Answer: Its pEC50 is 7.48.

Question: What about the “Change in blood pressure (first value of the printed pair)” value (anesthetized cat; 0.1 mg/kg i.v.) of the same molecule?
Answer: The value was -27 mm Hg.

Question: What about the “Change in blood pressure (second value of the printed pair)” value (anesthetized cat; 0.1 mg/kg i.v.) of the same molecule?
Answer: Its value is -33 mm Hg.

Question: What about the Increase in dp/dt (anesthetized cat; 0.1 mg/kg i.v.) of the same molecule?
Answer: Its Increase in dp/dt is “+116%”.
